Measurements taken from publication PMC7367283, “A PIP2 substitute mediates voltage sensor-pore coupling in KCNQ activation” (Communications Biology, 2020).
Where “and” joins values, the source holds several entries; their conditions need not be identical. Equal entries are not always repeated.

Columns and labels:
Test in all cases: Two-electrode voltage clamp of mutant KCNQ1 in Xenopus oocytes
Format in all cases: cell-based
[1] = target: KCNQ1 R249A/S253A/K354A/K358A (Homo sapiens, UniProt P51787, K354A/K358A/R249A/S253A)
Description: (§1) In a previous study, mutation of residues in the predicted PIP2-binding site reduced KCNQ1 currents. CP1 modifies voltage-dependent activation of KCNQ1 channels by shifting the voltage dependence of channel opening, measured as the voltage dependence of the conductance (G–V) relationship, to more negative voltages (Fig. 1c) among other characteristics (see below). We made mutations to the residues around the CP1-interacting pocket as indicated by molecular docking (Fig. 1b), and examined the effects of the mutations on the CP1-induced shift of the G–V relationship. The mutations of the KCNQ1 residues that interact with CP1 in docking simulations reduced the shift of the G–V relationship (Fig. 1c, d), supporting the interaction of these residues with CP1.
(§2) Complementary DNA (cDNA) encoding human KCNQ1 (UniProtKB/Swiss‐Prot under accession no. P51787), KCNQ2 (O43526), KCNQ3 (O43525), KCNE1 (P15382), Kir1.1 (P48048), hERG (Q12809), KV4.2 (Q63881), NaV1.5 (Q14524), NaV β1 (Q07699), CaV1.2 (Q13936), CaV β1a (Q02641), CaV α2/δ1 (P54289), and HCN4 (Q9Y3Q4) were subcloned into oocyte expression vectors, respectively. Site-directed mutations of the KCNQ1 channel were all produced by overlap extension polymerase chain reaction (PCR) with high-fidelity Pfu polymerase (Stratagene, CA). The presence of the desired mutation was verified by sequencing the PCR-amplified regions. All the primer sequences used in this study are available in Supplementary Table 1. The complementary RNA (cRNA) of all these channels and mutations was transcribed in vitro with the T3, T7, or SP6 polymerase mMessage mMachine kit (Invitrogen, Thermo Fisher Scientific, MO).
(§3) The use of Xenopus laevis to obtain oocytes was approved by the Washington University Animal Studies Committee (protocol #20190030). Oocytes were manually dispersed and digested with collagenase (0.5 mg/ml, Sigma-Aldrich, Saint Louis, MO) to remove the follicle cell layer. Stage V or VI oocytes were selected and injected with cRNAs (9.2 ng) of channel or mutations. Especially, to characterize IKs, a mix of cRNAs at a molar ratio 4:1 (KCNQ1:KCNE1) was injected. For KCNQ2/KCNQ3, the molar ratio was 1:1 (KCNQ2:KCNQ3). For sodium channels, a 3:1 molar ratio (β1:NaV1.5) and for calcium channels a weight ratio 1:1:1 (β1:α2/δ1:CaV1.2) was injected, respectively. Injected oocytes were incubated in ND96 solution containing (in mM) 96 NaCl, 2 KCl, 1.8 CaCl2, 1 MgCl2, and 5 HEPES, pH 7.6, supplemented with 2.5 mM Na pyruvate and 1% penicillin–streptomycin, at 18 °C for 3–7 days before recording.
(§4) The whole-oocyte ionic currents were recorded with a GeneClamp 500B amplifier (Axon Instruments, CA) or iTEV90 amplifier (HEKA, Germany) and then sampled at 1 kHz and low-pass-filtered at 2 kHz. The Patchmaster software (HEKA, Germany) was used to acquire data. The Kir1.1 current was recorded with a high K^+ bath solution containing (in mM) 96 KCl, 4 NaCl, 1 CaCl2, 2 MgCl2, and 10 HEPES, pH 7.3–7.4. The HCN4 current was recorded in ND66 solution containing (in mM) 66 NaCl, 32 KCl, 1.8 CaCl2, 1 MgCl2, and 5 HEPES, pH 7.6. All the other potassium channels were recorded in ND96 solution. The currents of CaV1.2 channel were recorded in 40 mM Ba^2+ bath solution containing (in mM) 40 Ba(OH)2, 50 TEA-OH, 2 KOH, and 5 HEPES, adjusted to pH 7.4 with methanesulfonic acid. CP1 (DISODIUM 5-BROMO-2-[9-CHLORO-3-(SULFONATOOXY) NAPHTHO [1,2-B] THIEN-2-YL]-1H-INDOL-3-YL SULFATE, Sigma-Aldrich, MO) and Chromanol 293B (Sigma-Aldrich, MO) were dissolved in bath solutions. All the chemicals were purchased from Sigma-Aldrich. To measure the I–V relations of the Kir1.1 channel, the test voltage was set from −100 to +60 mV for 1 s with 20-mV increments. The test pulses were stepped from a holding potential of 0 mV and then stepped back to 0 mV. The HCN4 currents were recorded by a test pulse between −30 and −140 mV in 10-mV step from a holding potential of −30 mV. […]

[2] = target: KCNQ1 R249A/S253A (Homo sapiens, UniProt P51787, R249A/S253A); settings: 10 µM CP1, individual oocytes
Description: as §1, §2, §3, §4

[3] = target: KCNQ1 K354A/K358A (Homo sapiens, UniProt P51787, K354A/K358A)
Description: as §1, §2, §3, §4

[4] = target: KCNQ1 R249A (Homo sapiens, UniProt P51787, R249A)
Description: as §1, §2, §3, §4

O=S(=O)([O-])Oc1c(-c2sc3c(ccc4cccc(Cl)c43)c2OS(=O)(=O)[O-])[nH]c2ccc(Br)cc12.[Na+].[Na+] [CP1, DISODIUM 5-BROMO-2-[9-CHLORO-3-(SULFONATOOXY) NAPHTHO [1,2-B] THIEN-2-YL]-1H-INDOL-3-YL SULFATE] was tested, and the G/Gmax ([1]; 10 µM CP1, 0 mV) was 0.6125, the G/Gmax ([1]; 10 µM CP1, 10 mV) was 0.7412 and the G/Gmax ([1]; 10 µM CP1, 20 mV) was 0.8671. The G/Gmax ([1]; 10 µM CP1, 30 mV) was 0.9470, the G/Gmax ([1]; 10 µM CP1, 40 mV) was 1.0000 and the G/Gmax ([1]; 10 µM CP1, -10 mV) was 0.4658. It also gave a G/Gmax ([1]; 10 µM CP1, -20 mV) of 0.3584, a G/Gmax ([1]; 10 µM CP1, -30 mV) of 0.2410 and a G/Gmax ([1]; 10 µM CP1, -40 mV) of 0.1854. For the same compound, the G/Gmax ([1]; 10 µM CP1, -50 mV) was 0.1254, the G/Gmax ([1]; 10 µM CP1, -60 mV) was 0.1039 and the G/Gmax ([1]; 10 µM CP1, -70 mV) was 0.0777. The G/Gmax ([1]; 10 µM CP1, -80 mV) was 0.0665, the G/Gmax ([1]; 10 µM CP1, -90 mV) was 0.0440 and the G/Gmax ([1]; 10 µM CP1, -100 mV) was 0.0354. For the same compound, the G/Gmax ([1]; 10 µM CP1, -110 mV) was 0.0175, the G/Gmax ([1]; 10 µM CP1, -120 mV) was 0.0015 and the “∆V1/2” value ([1]; 10 µM CP1, individual oocytes) was 21.6716 mV and 20.4143 mV and 21.6154 mV and 29.7699 mV. The “∆V1/2” value [2] was 49.1729 mV and 54.4047 mV and 38.3473 mV, the G/Gmax ([3]; 10 µM CP1, 0 mV) was 0.9071 and the G/Gmax ([3]; 10 µM CP1, 10 mV) was 0.9519. For the same compound, the G/Gmax ([3]; 10 µM CP1, 20 mV) was 0.9897, the G/Gmax ([3]; 10 µM CP1, 30 mV) was 1.0000 and the G/Gmax ([3]; 10 µM CP1, -10 mV) was 0.8497. The G/Gmax ([3]; 10 µM CP1, -20 mV) was 0.7541, the G/Gmax ([3]; 10 µM CP1, -30 mV) was 0.6165 and the G/Gmax ([3]; 10 µM CP1, -40 mV) was 0.4576. For the same compound, the G/Gmax ([3]; 10 µM CP1, -50 mV) was 0.3124, the G/Gmax ([3]; 10 µM CP1, -60 mV) was 0.2094 and the G/Gmax ([3]; 10 µM CP1, -70 mV) was 0.1390. It also gave a G/Gmax ([3]; 10 µM CP1, -80 mV) of 0.0950, a G/Gmax ([3]; 10 µM CP1, -90 mV) of 0.0670 and a G/Gmax ([3]; 10 µM CP1, -100 mV) of 0.0415. The G/Gmax ([3]; 10 µM CP1, -110 mV) was 0.0111, the G/Gmax ([3]; 10 µM CP1, -120 mV) was 0.0033 and the “∆V1/2” value ([3]; 10 µM CP1, individual oocytes) was 24.6605 mV and 42.476 mV and 38.8398 mV and 35.894 mV. For the same compound, the G/Gmax ([4]; 10 µM CP1, 0 mV) was 0.9092, the G/Gmax ([4]; 10 µM CP1, 10 mV) was 0.9509 and the G/Gmax ([4]; 10 µM CP1, 20 mV) was 0.9864. It also gave a G/Gmax ([4]; 10 µM CP1, 30 mV) of 1.0000, a G/Gmax ([4]; 10 µM CP1, -10 mV) of 0.8439 and a G/Gmax ([4]; 10 µM CP1, -20 mV) of 0.7664. For the same compound, the G/Gmax ([4]; 10 µM CP1, -30 mV) was 0.6715, the G/Gmax ([4]; 10 µM CP1, -40 mV) was 0.5716 and the G/Gmax ([4]; 10 µM CP1, -50 mV) was 0.4548. The G/Gmax ([4]; 10 µM CP1, -60 mV) was 0.3517, the G/Gmax ([4]; 10 µM CP1, -70 mV) was 0.2667 and the G/Gmax ([4]; 10 µM CP1, -80 mV) was 0.1987. The G/Gmax ([4]; 10 µM CP1, -90 mV) was 0.1385, the G/Gmax ([4]; 10 µM CP1, -100 mV) was 0.0990 and the G/Gmax ([4]; 10 µM CP1, -110 mV) was 0.0539. The G/Gmax ([4]; 10 µM CP1, -120 mV) was 0.0000 and the “∆V1/2” value ([4]; 10 µM CP1, individual oocytes) was 32.4733 mV and 36.93 mV and 39.3292 mV and 47.5115 mV and 29.4037 mV.
